Laboratory results taken from patent US20100209486A1, “Method of enhancing CoenzymeQ10 levels in mammals” (priority 2009, published 2010).

What was measured:
[1] = tested on: isolated guinea pig hearts; assay: Cardiomyocyte apoptosis (TUNEL) in isolated ischemic/reperfused guinea pig hearts; assay type: in vivo; conditions: 5 mg/kg/day oral for 4 weeks; end of reperfusion; percent of total myocyte population; control 21±2%
Protocol: (§1) FIG. 2/B. Effects of CoQ10 and CoQ9 on cardiomyocyte apoptosis in isolated guinea pig hearts subjected to 30 min of ischemia followed by 120 min of reperfusion. The bars represent mean±SD of cardiomyocyte apoptosis for control, CoQ10 and CoQ9 supplemented groups. *p<0.05 compared to the untreated age-matched ischemic/reperfused drug-free control (C) value.
(§2) Experimental studies were designed to determine if CoQ9 could protect guinea pig hearts from ischemia reperfusion injury. Myocardial ischemia reperfusion injury model is the most widely accepted experimental method for assessment of parameters related to cardio-protection. […] Cardioprotection was assessed by evaluating left ventricular function, ventricular arrhythmias, myocardial infarct size and cardiomyocyte apoptosis.
CoQ9 and CoQ10 treatment reduces apoptosis of cardiomyocytes: Animal preparation, drug pretreatment and isolated working heart preparation were done as described in example 1. […] The fluorescence staining was viewed with a confocal laser microscope. The number of apoptotic cells was counted and expressed as a percent of total myocyte population. […] Apoptosis of cardiomyocytes determined by Tunel method in control group was about 21±2% at the end of reperfusion.

[2] = tested on: isolated guinea pig hearts; assay: Myocardial infarct size (TTC staining) in isolated ischemic/reperfused guinea pig hearts; assay type: in vivo; conditions: 5 mg/kg/day oral for 4 weeks; 30 min global ischemia, 120 min reperfusion; ratio infarct zone to risk zone; control 38±4.1%
Protocol: as §1, with “2/A” for “2/B.”, “infarct size” for “cardiomyocyte apoptosis”, “value. N=12 in each group.” for “value.”
as §2
CoQ9 and CoQ10 treatment protects from cardiac infarction: Animal preparation, drug pretreatment and isolated working heart preparation were done as described in example 1. […] Using the NIH Image 1.61 image processing software, Infarct zones of each slice were traced and the respective areas were calculated in terms of pixels. The areas were measured by computerized planimetry software and these areas were multiplied by the weight of each slice, then the results summed up to obtain the weight of the risk zone. Infarct size was calculated as the ratio, in percent, of the infarct zone to the risk zone. […]

Question: For COC1=C(OC)C(=O)C(C/C=C(\C)CC/C=C(\C)CC/C=C(\C)CC/C=C(\C)CC/C=C(\C)CC/C=C(\C)CC/C=C(\C)CC/C=C(\C)CCC=C(C)C)=C(C)C1=O [CoQ9, Coenzyme Q9], which “apoptotic cardiomyocytes (Tunel method)” value [1] is on record?
Answer: 7±1.5%

Question: What about the infarct size [2] of the same compound?
Answer: 16.3±3.2%

Question: COC1=C(OC)C(=O)C(C/C=C(\C)CC/C=C(\C)CC/C=C(\C)CC/C=C(\C)CC/C=C(\C)CC/C=C(\C)CC/C=C(\C)CC/C=C(\C)CC/C=C(\C)CCC=C(C)C)=C(C)C1=O [CoQ10, Coenzyme Q10, reference compound] was tested. Which “apoptotic cardiomyocytes (Tunel method)” value [1] did it give?
Answer: 6±1%

Question: What about the infarct size [2] of the same compound?
Answer: 21.1±5%
